Measurements taken from US20120294886A1, “PEPTIDE CONJUGATES FOR SUPPRESSING AN IMMUNE RESPONSE, METHODS OF MAKING AND USES THEREFOR” (The University of Queensland, priority 2011, published 2012).

Legend:
[1] = test system: SJL/J mouse; experiment: EAE induction by F188, co-immunisation with A188 or S-palm A188 (Example 5); assay type: in vivo
Method: (§1) One mg per mL of F188 peptide, either alone or together with A188 peptide or S-palm A188 peptide at different molar ratios, was emulsified in an equal volume of complete Freund's adjuvant containing an additional 4 mg/ml Mycobacterium tuberculosis H37Ra. 200 μl of the emulsion (i.e. 100 μg F188) was then injected subcutaneously in a single site on the back of each SJL/J mouse. Each mouse also received 300 ng pertussis toxin intravenously on the same day as the peptide emulsion and then 3 days later.
(§2) The mice were inspected and weighed daily and scored for disease using a 5 point severity scale: 0=no disease; 1=decreased tail tone; 2=no tail tone; 3=hind limb weakness; 4=hind limb paralysis; 5=moribund.

[2] = test system: SJL/J mice; experiment: Therapeutic treatment of established S-palm-PLP178-191-induced EAE (Example 7); assay type: in vivo, mouse; conditions: 100 μL of 1 mg/mL in PBS s.c. at score 2.0 or 2.5, followed for 7 days, versus PBS, FIG. 6
Method: SJL/J mice were injected subcutaneously with 100 μg S-palm-F188 (S-palm-PLP178-191), i.e. 100 μl of a 1 mg/ml solution emulsified in an equal volume (i.e. 100 μl Complete Freund's Adjuvant containing an extra 4 mg/mL Mycobacterium tuberculosis H37Ra. Each mouse also received 300 ng pertussis toxin intravenously on the same day as the peptide emulsion and then 3 days later.
The mice were then inspected and scored for disease using a 5 point severity scale: 0=no disease; 1=decreased tail tone; 2=no tail tone; 3=hind limb weakness; 4=hind limb paralysis; 5=moribund.
When the mice reached a score between 2.0 or 2.5, each mouse was injected subcutaneously with 100 μL PBS (n=6), 100 μL of 1 mg/mL A188 in PBS (n=6), or 100 μL of 1 mg/mL S-palm-A188 in PBS (n=7).
Mice were then followed for 7 days, and scored each day.

[3] = test system: SJL/J mice; experiment: Induction of EAE by immunisation with peptide in complete Freund's adjuvant (Example 2); assay type: in vivo, mouse; conditions: for Day of Onset / Incidence: EAE; for Day of Onset / Incidence / Score: mice immunised with the peptide in CFA; for Incidence: followed for 6 weeks; for Score: clinical score of EAE; for Duration: duration of the first episode of disease
Method: In examples 2 and 4-8, PLP encephalitogenic epitopes were injected into SJL/J mice to induce EAE, so the mice could be used as an animal model for MS. Such a model has been used in numerous studies, including where preventative or treatment methods for MS are being investigated. The study described in Hofstetter et al., 2007, for example, describes the induction of EAE in SJL mice at pages 1373-1374.
Mice were immunised with the above non-palmitoylated, S-palmitoylated or N-palmitoylated peptides in complete Freund's adjuvant to induce EAE.
(1) Mice were followed for 6 weeks to determine the induction of EAE.

[4] = test system: endosomes; experiment: Colocalisation of peptide with endosomes in macrophages, confocal microscopy (Example 3); assay type: cell-based, mouse; conditions: FIG. 3
Method: (§3) For confocal microscopy, macrophages were isolated from normal 8-12-wk old female SJL/J mice peritoneal cell suspensions by adhesion to glass coverslips. The macrophages were then incubated with 100 μM peptide for between 1 min and 24 h at 37° C., the peptide being one of:
(§4) After incubation, cells were fixed with 4% formaldehyde in PBS for 15 min at room temperature and permeabilised with 0.05% digitonin in PBS for 5 min at room temperature or 0.2% Triton X-100 in PBS for 20 min at room temperature.
(§5) The cells were then incubated with murine antibodies against endosomes, lysosomes, endoplasmic reticulum, or MHC class I or II molecules for 1-3 hours at 37° C. After three washes in PBS, cells were incubated with streptavidin-Alexa 488 (1/400 dilution in PBS) or streptavidin-Cy3 (1/450 dilution in PBS) (both from Molecular Probes) and Texas Red-labeled rabbit anti-mouse IgG or IgM for 30 min in the dark at room temperature. After washing with PBS, coverslips were mounted in Aquapolymount medium. Immunofluorescence staining was monitored with a laser scanning microscope (LSM 510; Carl Zeiss Laboratories) equipped with a Plan-Apochromat 63× oil DIC immersion lens (numerical aperture 1.4). […] Quantification of colocalisation was performed on cells from 10 to 12 fields (at least 100 cells) with the colocalisation module of the Zeiss LSM Image Browser software.

[5] = test system: lysosomes; experiment: Colocalisation of peptide with lysosomes in macrophages, confocal microscopy (Example 3); assay type: cell-based, mouse; conditions: FIG. 3
Method: as §3, §4, §5

[6] = test system: endoplasmic reticulum (ER); experiment: Colocalisation of peptide with endoplasmic reticulum in macrophages, confocal microscopy (Example 3); assay type: cell-based, mouse; conditions: 30 or 60 minutes incubation, FIG. 4
Method: as §3, §4, §5

[7] = test system: MHC class I molecules; experiment: Colocalisation of peptide with MHC class I in macrophages, confocal microscopy (Example 3); assay type: cell-based, mouse; conditions: FIG. 5
Method: as §3, §4, §5

[8] = test system: MHC class II molecules; experiment: Colocalisation of peptide with MHC class II in macrophages, confocal microscopy (Example 3); assay type: cell-based, mouse; conditions: FIG. 5
Method: as §3, §4, §5

[9] = test system: lymph node cells (LNC); experiment: CD4/CD8 ratio of activated LNC by flow cytometry (Example 2); assay type: cell-based, mouse; conditions: activated LNC from immunised mice, 4 per group
Method: Lymph nodes from a different group of mice immunised in the same manner were removed 10 days after injection of the peptides and single cell suspensions of lymph node cells (LNC) were prepared.
(3) Other LNC were incubated with antibodies against CD4 or CD8, and the ratio of CD4 to CD8 was determined using flow cytometric techniques. LNC were centrifuged through a Ficoll gradient and washed with PBS containing 1% FCS and 0.01% sodium azide (wash buffer). Aliquots of 1 million cells were incubated with antibodies specific for CD4 (clone RM4-5; rat IgG2a) or CD8a (clone 53-6.7; rat IgG2a) together with an antibody specific for the TCR β-chain (H57-597; hamster IgG) for 30 min at 4° C. in the dark, followed by FITC-conjugate anti-rat κ-chain or PE-conjugated anti-hamster IgG for 30 min at 4° C. in the dark. Isotype-matched primary antibodies were used as controls. All antibodies were purchased from PharMingen (San Diego, Calif.) and were used at 1 μg/ml dilution in wash buffer. After washing, cells were resuspended in wash buffer and analysed using a FACSCalibur flow cytometer (Becton Dickinson, Franklin Lakes, N.J.).

[10] = test system: SJL/J mouse; experiment: EAE induction by W144, co-immunisation with Q144 or S-palm Q144 (Example 4); assay type: in vivo
Method: as §1, with “W144” for “F188”, “Q144” for “A188”, “W144)” for “F188)”
as §2

[11] = EAE, 100 μg W144 alone in CFA s.c.

Substance	Day of Onset [3] [days]	Incidence [3]	Score [3]	Duration [3]	Colocalisation with endosomes [4]	Colocalisation with lysosomes [5]	Colocalisation with endoplasmic reticulum (ER) [6]	Colocalisation with MHC class I [7]	CD4/CD8 Ratio (mean ± SEM) [9]	further results
H2N-NTWTTCQSIAAPSK-CO2H (H-NTWTTCQSIAAPSK-OH) [A188]										Protective effect on EAE (in words) ([1]; injected at a dose 5 times greater than the encephalitogenic peptide F188): protective; Mean EAE score after treatment [2]: intermediate between the control group and the S-palm-A188-treated group
H2N-NTWTTCQSIAFPSK-CO2H (H-NTWTTCQSIAFPSK-OH) [PLP178-191]	13.0 ± 1.5	5/5	2.7 ± 0.9	5.8 ± 0.4						Mean severity ([1]; 5 point scale, F188 alone): 2.8 ± 0.3; Incidence ([1]; EAE, 100 μg F188 alone in CFA s.c.): 8/8; Mean day of onset ([1]; EAE, F188 alone): 11.3 ± 0.5 days
PLP139-151 Cys140-Palm Lys150-Biot (S-palm) (HCLGKWLGHPDKF) [S-palm peptide]					colocalised rapidly and strongly with endosomes	colocalised strongly with lysosomes	but not S-palm peptide colocalised strongly	only a small percentage		Colocalisation with MHC class II [8]: colocalised strongly with MHC class II
H2N-KTTICGKGLSATVT-CO2H (H-KTTICGKGLSATVT-OH) [PLP104-117]		0/4	0						2.31 ± 0.07	
H2N-HCLGKWLGHPDKF-CO2H (H-HCLGKWLGHPDKF-OH) [PLP139-151]	11.0 ± 1.4	4/4	3.0 ± 0.7	5.8 ± 1.8					2.18 ± 0.19	Incidence [10, 11]: 4/4; Mean day of onset [10, 11]: 11.5 days; Mean severity ([10]; mean maximum severity of mice that developed EAE, 5 point scale, W144 alone): 4.3
PLP139-151 His139-Palm Lys150-Biot (N-palm) (HCLGKWLGHPDKF) [N-palm peptide]					did not colocalise strongly with endosomes in most cells	did not colocalise strongly with lysosomes in most cells	colocalised strongly with endoplasmic reticulum (ER)	colocalised strongly with MHC class I		
